Reference: patent publication US7060683B2, “Hydroxamate-containing cysteine and serine protease inhibitors” (Cephalon, Inc., priority 1998, dated 2006)

target: T1, Recombinant human calpain I (Homo sapiens, UniProt P07384); test: Inhibition of Calpain (Succ-Leu-Tyr-MNA substrate hydrolysis); assay type: biochemical; settings: 0.2 mM Succ-Leu-Tyr-MNA, pH 7.5, five to seven concentrations
T1 construct: made in house
T1 sequence (P07384 1-714): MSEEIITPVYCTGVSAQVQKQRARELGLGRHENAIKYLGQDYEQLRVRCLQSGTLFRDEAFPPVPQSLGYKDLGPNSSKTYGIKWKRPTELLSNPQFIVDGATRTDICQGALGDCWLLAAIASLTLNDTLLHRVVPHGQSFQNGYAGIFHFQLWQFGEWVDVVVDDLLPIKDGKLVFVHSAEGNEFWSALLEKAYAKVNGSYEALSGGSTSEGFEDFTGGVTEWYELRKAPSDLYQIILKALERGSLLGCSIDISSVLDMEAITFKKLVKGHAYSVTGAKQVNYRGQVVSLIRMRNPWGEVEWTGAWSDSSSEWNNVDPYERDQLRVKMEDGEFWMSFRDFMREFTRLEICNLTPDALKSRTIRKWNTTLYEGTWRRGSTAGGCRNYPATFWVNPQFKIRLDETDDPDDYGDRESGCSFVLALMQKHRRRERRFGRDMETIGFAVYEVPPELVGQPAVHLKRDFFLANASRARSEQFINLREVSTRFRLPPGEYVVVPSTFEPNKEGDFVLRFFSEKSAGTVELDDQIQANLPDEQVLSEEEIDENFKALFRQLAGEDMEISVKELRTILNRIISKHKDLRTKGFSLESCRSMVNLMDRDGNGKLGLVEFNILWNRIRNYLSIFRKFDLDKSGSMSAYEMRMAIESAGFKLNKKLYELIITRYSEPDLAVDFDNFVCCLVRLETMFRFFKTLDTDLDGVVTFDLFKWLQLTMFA
T1 sequence (P04632 1-268 partner): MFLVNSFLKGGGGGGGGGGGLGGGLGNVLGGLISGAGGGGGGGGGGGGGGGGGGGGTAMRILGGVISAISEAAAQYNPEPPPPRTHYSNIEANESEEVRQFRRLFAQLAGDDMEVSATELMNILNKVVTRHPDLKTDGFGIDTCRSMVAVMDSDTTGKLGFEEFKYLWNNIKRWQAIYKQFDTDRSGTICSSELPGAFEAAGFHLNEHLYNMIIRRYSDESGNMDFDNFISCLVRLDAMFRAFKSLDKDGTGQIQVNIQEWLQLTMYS
Description: To evaluate inhibitory activity, stock solutions (40 times concentrated) of each compound to be tested were prepared in 100% anhydrous DMSO and 5 μL of each inhibitor preparation were aliquoted into each of three wells of a 96-well plate. Recombinant human calpain I, prepared by the method of Meyer et al. (Biochem., J. 1996, 314: 511–519), was diluted into assay buffer (i.e., 50 mM Tris, 50 mM NaCl, 1 mM EDTA, 1 mM EGTA, and 5 mM β-mercaptoethanol, pH 7.5, including 0.2 mM Succ-Leu-Tyr-MNA), and 175 μl was aliquoted into the same wells containing the independent inhibitor stocks as well as to positive control wells containing 5 μl DMSO, but no compound. To start the reaction, 20 μl of 50 mM CaCl2 in assay buffer was added to all wells of the plate, excepting three, which were used as background signal baseline controls. Substrate hydrolysis was monitored every 5 minutes for a total of 30 minutes.
Inhibition of calpain I activity was calculated as the percent decrease in the rate of substrate hydrolysis in the presence of inhibitor relative to the rate in its absence. Comparison between the inhibited and control rates was made within the linear range for substrate hydrolysis. The IC50s of inhibitors (concentration yielding 50% inhibition) were determined from the percent decrease in rates of substrate hydrolysis in the presence of five to seven different concentrations of the test compound. The results were plotted as percent inhibition versus log inhibitor concentration, and the IC50 was calculated by fitting the data to the four-parameter logistic equation shown below using the program GraphPad Prism (GraphPad Software, Inc., San Diego, Calif.). y=d+[(a−d)/(1+(x/c)^b)]
The parameters a, b, c, and d are defined as follows: a is % inhibition in the absence of inbibitor, b is the slope, c is the IC50, and d is the % innibition at an infinite concentration of inhibitor.

IC50 [nM] | Structure (SMILES)
10 | CONC(=O)C(=O)[C@H](Cc1ccccc1)NC(=O)[C@H](CC(C)C)NC(=O)OCc1ccccc1 [Example 1, Cbz-Leu-Phe-CONHOCH3]
19 | CCONC(=O)C(=O)[C@H](Cc1ccccc1)NC(=O)[C@H](CC(C)C)NC(=O)OCc1ccccc1 [Example 2, Cbz-Leu-Phe-CONHOEt]
6 | CC(C)C[C@H](NC(=O)OCc1ccccc1)C(=O)N[C@@H](Cc1ccccc1)C(=O)C(=O)NOCc1ccccc1 [Example 3, Cbz-Leu-Phe-CONHOBn]
17 | CC(C)C[C@H](NC(=O)OCc1ccccc1)C(=O)N[C@@H](Cc1ccccc1)C(=O)C(=O)NOCc1c(F)c(F)c(F)c(F)c1F [Example 4, Cbz-Leu-Phe-CONHOCH2C6F5]
26 | CC(C)C[C@H](NC(=O)OCc1ccccc1)C(=O)N[C@@H](Cc1ccccc1)C(=O)C(=O)NOC(C)(C)C [Example 5, Cbz-Leu-Phe-CONHOtBu]
21 | CC(C)C[C@H](NC(=O)OCc1ccccc1)C(=O)N[C@@H](Cc1ccccc1)C(=O)C(=O)NOC1CCC(C)CC1 (stereo partly drawn) [Example 6, Cbz-Leu-Phe-CONHO(4-methylcyclohexane)]
152 | COC[C@H](NC(=O)[C@@H](COCc1ccccc1)NS(C)(=O)=O)C(=O)C(=O)NOCc1ccccc1 [Example 7, CH3SO2-D-Ser(Bn)-Ser(Me)-CONHOBn]
28 | CS(=O)(=O)N[C@H](COCc1ccccc1)C(=O)N[C@@H](Cc1ccccc1)C(=O)C(=O)NOCc1ccccc1 [Example 8, CH3SO2-D-Ser(Bn)-Phe-CONHOBn]
56 | CCONC(=O)C(=O)[C@H](Cc1ccccc1)NC(=O)[C@@H](COCc1ccccc1)NS(C)(=O)=O [Example 9]
21 | CCCC[C@H](NC(=O)[C@@H](NC(=O)OCc1ccccc1)C(C)C)C(=O)C(=O)NOCc1ccccc1 [Example 11, Cbz-Val-Nle-CONHOBn]
20 | CONC(=O)C(=O)[C@H](Cc1ccccc1)NC(=O)[C@H](CC(C)C)NC(=O)[C@H](CC(C)C)NC(=O)OCc1ccccc1 [Example 12, Cbz-Leu-Leu-Phe-CONHOCH3]
17 | CC(C)C[C@H](NC(=O)OCc1ccccc1)C(=O)N[C@@H](CC(C)C)C(=O)N[C@@H](Cc1ccccc1)C(=O)C(=O)NOCc1ccccc1 [Example 13, Cbz-Leu-Leu-Phe-CONHOBn]

Structure (SMILES) | IC50 [nM]
CCCCONC(=O)C(=O)[C@H](Cc1ccccc1)NC(=O)[C@H](CC(C)C)NC(=O)OCc1ccccc1 [Example 14, Cbz-Leu-Phe-CONHOBu] | 183
CCCC[C@H](NC(=O)[C@H](Cc1ccccc1)NC(=O)c1ccccc1)C(=O)C(=O)NOCC [Example 15, PhCO-Phe-Nle-CONHOEt] | 193
